The source of these data is ChEMBL document CHEMBL1949541, “Discovery of 7-arylsulfonyl-1,2,3,4, 4a,9a-hexahydro-benzo[4,5]furo[2,3-c]pyridines: identification of a potent and selective 5-HT₆ receptor antagonist showing activity in rat social recognition test” (Bioorg Med Chem Lett, 2012).

Series [1] deals with T1, 5-hydroxytryptamine receptor 6 (Homo sapiens, UniProt P50406). Put plainly: Displacement of [3H]LSD from human recombinant 5HT6 receptor. A general note: Displacement assays read how much labelled ligand stays bound in the presence of the test substance.
T1 sequence (P50406 whole entry): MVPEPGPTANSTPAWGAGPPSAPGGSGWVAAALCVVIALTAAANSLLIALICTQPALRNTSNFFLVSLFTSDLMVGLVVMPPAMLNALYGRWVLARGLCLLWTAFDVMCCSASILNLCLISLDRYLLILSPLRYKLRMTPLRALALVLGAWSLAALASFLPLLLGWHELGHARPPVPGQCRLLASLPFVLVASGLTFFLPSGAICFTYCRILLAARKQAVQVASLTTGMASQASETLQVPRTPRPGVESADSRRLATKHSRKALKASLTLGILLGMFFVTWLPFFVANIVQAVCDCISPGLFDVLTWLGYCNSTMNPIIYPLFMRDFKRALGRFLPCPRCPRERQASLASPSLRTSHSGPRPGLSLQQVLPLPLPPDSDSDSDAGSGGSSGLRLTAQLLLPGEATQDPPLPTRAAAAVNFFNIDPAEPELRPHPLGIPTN
The target in series [2] is 5-hydroxytryptamine receptor 6 (Rattus norvegicus, UniProt P31388). Description: Displacement of [3H]LSD from rat recombinant 5HT6 receptor.
5-hydroxytryptamine receptor 6 (Rattus norvegicus, UniProt P31388), sequence (P31388 whole entry): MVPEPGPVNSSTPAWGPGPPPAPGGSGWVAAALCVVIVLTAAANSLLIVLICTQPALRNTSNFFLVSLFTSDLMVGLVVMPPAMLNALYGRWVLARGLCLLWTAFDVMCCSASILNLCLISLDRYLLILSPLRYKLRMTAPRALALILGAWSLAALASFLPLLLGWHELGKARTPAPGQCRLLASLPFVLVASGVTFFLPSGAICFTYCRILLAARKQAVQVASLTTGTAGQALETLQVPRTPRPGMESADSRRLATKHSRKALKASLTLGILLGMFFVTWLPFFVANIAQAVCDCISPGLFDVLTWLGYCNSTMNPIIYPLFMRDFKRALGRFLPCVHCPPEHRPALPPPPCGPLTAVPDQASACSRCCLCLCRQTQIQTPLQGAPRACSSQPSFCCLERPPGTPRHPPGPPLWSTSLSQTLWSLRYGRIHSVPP
The target in series [3] is T1, 5-hydroxytryptamine receptor 6. Put plainly: Antagonist activity at human 5HT6 receptor expressed in human astrocytoma cells assessed as inhibition of cAMP production. In kind it is functional, cell-based.
Series [4] deals with Rattus norvegicus. Put plainly: Half life in rat at 1 mg/kg, iv. In kind it is ADME, organism-based. Further details: dose 1 mg/kg, route intravenous. Particulars: in vivo.
Series [5] concerns Rattus norvegicus. Put plainly: Volume of distribution in rat at 1 mg/kg, iv. In kind it is ADME, organism-based. On the set-up: dose 1 mg/kg, route intravenous. The following applies: in vivo.
The nature of series [6]: Oral bioavailability in rat at 5 mg/kg at 24 hrs. Particulars: in vivo. In kind it is ADME, organism-based.
Series [7] is described as follows: Ratio of drug uptake in brain to plasma in rat at 5 mg/kg, po. In kind it is ADME, organism-based. On the set-up: dose 5 mg/kg, route oral. The following applies: read-out: BPR.
Series [8] can be described thus: Aqueous solubility at pH 7.4. In kind it is physicochemical. Particulars: buffer.
Series [9] in a line: Aqueous solubility at pH 2. In kind it is physicochemical. The following applies: buffer.
Series [10] in a line: Apparent permeability from apical to basal side of MDCK2-MDR1. In kind it is ADME, cell-based, Canis lupus familiaris, MDCK-II. Particulars: dog, MDCK-MDR1.
Series [11] is described as follows: Plasma protein binding in rat. Particulars: read-out: PPB (converted). In kind it is ADME, cell-free.
Series [12] is described as follows: Plasma protein binding in human. In kind it is ADME, cell-free. The following applies: read-out: PPB (converted).
Series [13] is described as follows: Half life in mouse liver microsomes. In kind it is ADME, Microsome. (Liver microsomes are a subcellular fraction often used to study metabolism.)
Series [14] in a line: Half life in rat liver microsomes. In kind it is ADME, Microsome.
Series [15] in a line: Half life in dog liver microsomes. In kind it is ADME, Canis lupus familiaris, Microsome.
Series [16] can be described thus: Half life in human liver microsomes. In kind it is ADME, Microsome.
In another series the target is Cytochrome P450 1A2 (Homo sapiens, UniProt P05177). Put plainly: Inhibition of CYP 1A2. In kind it is ADME.
Cytochrome P450 1A2, sequence (P05177 whole entry): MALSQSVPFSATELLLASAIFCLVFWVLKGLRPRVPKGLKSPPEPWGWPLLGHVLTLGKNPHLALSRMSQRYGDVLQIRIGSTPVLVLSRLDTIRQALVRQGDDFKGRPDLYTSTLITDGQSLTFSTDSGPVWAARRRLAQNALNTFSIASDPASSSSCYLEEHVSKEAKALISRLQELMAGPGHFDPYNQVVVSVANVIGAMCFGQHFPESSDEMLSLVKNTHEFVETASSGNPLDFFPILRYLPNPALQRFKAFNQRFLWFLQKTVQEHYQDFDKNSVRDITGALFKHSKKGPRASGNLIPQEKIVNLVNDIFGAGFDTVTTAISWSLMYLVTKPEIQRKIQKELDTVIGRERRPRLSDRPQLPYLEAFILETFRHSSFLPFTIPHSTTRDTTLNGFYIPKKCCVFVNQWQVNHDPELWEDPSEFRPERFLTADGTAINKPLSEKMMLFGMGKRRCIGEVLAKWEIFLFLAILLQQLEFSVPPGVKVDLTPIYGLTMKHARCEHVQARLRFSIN
A further series deals with Cytochrome P450 2C9 (Homo sapiens, UniProt P11712). Description: Inhibition of CYP 2C9. In kind it is ADME.
Cytochrome P450 2C9, sequence (P11712 whole entry): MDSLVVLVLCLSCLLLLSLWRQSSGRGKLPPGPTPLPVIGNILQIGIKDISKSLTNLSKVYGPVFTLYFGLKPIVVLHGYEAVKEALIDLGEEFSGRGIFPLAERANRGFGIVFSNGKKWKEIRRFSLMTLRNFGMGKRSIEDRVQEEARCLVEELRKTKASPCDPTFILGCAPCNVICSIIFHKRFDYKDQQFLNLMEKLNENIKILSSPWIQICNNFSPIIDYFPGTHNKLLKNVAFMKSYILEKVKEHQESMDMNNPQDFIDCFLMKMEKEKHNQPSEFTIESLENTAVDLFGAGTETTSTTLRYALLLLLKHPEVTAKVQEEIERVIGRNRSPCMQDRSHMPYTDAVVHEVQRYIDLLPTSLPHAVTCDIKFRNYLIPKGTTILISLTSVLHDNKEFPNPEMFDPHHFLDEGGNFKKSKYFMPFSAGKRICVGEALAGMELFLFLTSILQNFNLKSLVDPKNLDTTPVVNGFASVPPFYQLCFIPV
For another series, the target named is Cytochrome P450 2C19 (Homo sapiens, UniProt P33261). Put plainly: Inhibition of CYP 2C19. In kind it is ADME.
Cytochrome P450 2C19, sequence (P33261 whole entry): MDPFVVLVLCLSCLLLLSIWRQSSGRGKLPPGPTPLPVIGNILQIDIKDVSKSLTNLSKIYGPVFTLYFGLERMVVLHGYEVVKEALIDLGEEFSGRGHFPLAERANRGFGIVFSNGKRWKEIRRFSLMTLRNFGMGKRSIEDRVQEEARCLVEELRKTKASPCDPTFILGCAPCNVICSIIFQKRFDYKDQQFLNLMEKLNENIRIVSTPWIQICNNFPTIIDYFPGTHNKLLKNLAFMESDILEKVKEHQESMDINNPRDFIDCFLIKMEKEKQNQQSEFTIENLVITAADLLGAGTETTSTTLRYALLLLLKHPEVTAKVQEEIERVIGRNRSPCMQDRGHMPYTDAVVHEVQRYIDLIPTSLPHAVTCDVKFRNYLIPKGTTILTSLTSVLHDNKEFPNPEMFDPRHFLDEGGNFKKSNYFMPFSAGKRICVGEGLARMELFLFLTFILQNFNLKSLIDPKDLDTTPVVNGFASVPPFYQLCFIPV
A further series concerns the target Cytochrome P450 2D6 (Homo sapiens, UniProt P10635). Description: Inhibition of CYP 2D6. In kind it is ADME.
A further series concerns the target Cytochrome P450 3A4 (Homo sapiens, UniProt P08684). Description: Inhibition of CYP 3A4. In kind it is ADME.
Series [17] concerns the target 5-hydroxytryptamine receptor 2A (Homo sapiens, UniProt P28223). Description: Inhibition of human 5HT2A.
Series [18] has as its target 5-hydroxytryptamine receptor 2B (Homo sapiens, UniProt P41595). Description: Inhibition of human 5HT2B.
The target in series [19] is 5-hydroxytryptamine receptor 2C (Homo sapiens, UniProt P28335). Description: Inhibition of human 5HT2C.
For series [20], the target named is Voltage-gated inwardly rectifying potassium channel KCNH2 (Homo sapiens, UniProt Q12809). Description: Inhibition of human ERG by patch clamp assay.
Series [21] has as its target Muscarinic acetylcholine receptor M1 (Homo sapiens, UniProt P11229). Description: Inhibition of M1 receptor.
For series [22], the target named is Muscarinic acetylcholine receptor M2 (Homo sapiens, UniProt P08172). Put plainly: Inhibition of M2 receptor.
Muscarinic acetylcholine receptor M2, sequence (P08172 whole entry): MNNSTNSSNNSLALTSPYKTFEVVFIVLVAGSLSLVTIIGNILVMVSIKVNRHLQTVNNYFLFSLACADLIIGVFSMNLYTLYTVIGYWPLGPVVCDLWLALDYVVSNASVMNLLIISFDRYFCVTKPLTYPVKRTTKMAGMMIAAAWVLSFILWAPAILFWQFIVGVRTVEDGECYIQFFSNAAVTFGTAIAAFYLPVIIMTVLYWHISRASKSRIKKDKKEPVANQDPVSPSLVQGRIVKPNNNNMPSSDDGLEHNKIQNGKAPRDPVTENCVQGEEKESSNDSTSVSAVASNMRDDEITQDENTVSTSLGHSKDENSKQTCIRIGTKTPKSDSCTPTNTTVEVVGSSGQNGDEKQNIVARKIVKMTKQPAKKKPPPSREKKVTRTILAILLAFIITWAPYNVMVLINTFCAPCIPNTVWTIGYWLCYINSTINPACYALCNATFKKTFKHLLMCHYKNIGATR
Series [23] addresses Muscarinic acetylcholine receptor M4 (Homo sapiens, UniProt P08173). Put plainly: Inhibition of M4 receptor.
Series [24] has as its target Sodium-dependent dopamine transporter (Homo sapiens, UniProt Q01959). Description: Inhibition of DA transporter.
Series [25] has as its target Sodium-dependent noradrenaline transporter (Homo sapiens, UniProt P23975). Description: Inhibition of NA transporter.
A short description of series [26]: Inhibition of calcium channel-L type.
The subject of series [27] is Rattus norvegicus. Put plainly: Antiamnesic activity in rat assessed as decrease in ratio of investigation duration of familiar juvenile rat at 0.3 mg/kg, ip administered 120 mins prior to test by social recognition test. The following applies: route intraperitoneal. In kind it is functional. On the set-up: scale not given: the % may be the effect or the level left.

Series [28] deals with Rattus norvegicus. Put plainly: Antiamnesic activity in rat assessed as decrease in ratio of investigation duration of familiar juvenile rat at 1 mg/kg, ip administered 120 mins prior to test by social recognition test. In kind it is functional. Further details: scale not given: the % may be the effect or the level left. The following applies: route intraperitoneal.
Series [29] has as its system Rattus norvegicus. Put plainly: Antiamnesic activity in rat assessed as decrease in ratio of investigation duration of familiar juvenile rat at 3 mg/kg, ip administered 120 mins prior to test by social recognition test. The following applies: route intraperitoneal. In kind it is functional. Further details: scale not given: the % may be the effect or the level left.

A short description of series [30]: Oral bioavailability in rat at 5 mg/kg. In kind it is ADME, organism-based. The following applies: in vivo.
The subject of series [31] is Rattus norvegicus. Put plainly: Ratio of drug uptake in brain to plasma in rat at 5 mg/kg, po.

Muscarinic acetylcholine receptor M1, sequence (P11229 whole entry): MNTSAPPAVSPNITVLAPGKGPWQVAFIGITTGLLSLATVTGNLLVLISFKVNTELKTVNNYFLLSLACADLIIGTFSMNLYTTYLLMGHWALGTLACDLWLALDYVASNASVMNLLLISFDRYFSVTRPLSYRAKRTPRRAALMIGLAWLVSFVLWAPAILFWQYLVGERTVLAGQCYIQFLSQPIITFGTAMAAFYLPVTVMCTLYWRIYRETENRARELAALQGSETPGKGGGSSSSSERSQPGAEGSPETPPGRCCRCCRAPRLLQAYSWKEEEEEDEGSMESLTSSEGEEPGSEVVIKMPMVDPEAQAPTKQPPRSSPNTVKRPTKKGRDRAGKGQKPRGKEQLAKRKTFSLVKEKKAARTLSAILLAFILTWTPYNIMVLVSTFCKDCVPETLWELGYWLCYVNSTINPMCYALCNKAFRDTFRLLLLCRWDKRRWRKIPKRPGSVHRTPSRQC
Sodium-dependent noradrenaline transporter, sequence (P23975 whole entry): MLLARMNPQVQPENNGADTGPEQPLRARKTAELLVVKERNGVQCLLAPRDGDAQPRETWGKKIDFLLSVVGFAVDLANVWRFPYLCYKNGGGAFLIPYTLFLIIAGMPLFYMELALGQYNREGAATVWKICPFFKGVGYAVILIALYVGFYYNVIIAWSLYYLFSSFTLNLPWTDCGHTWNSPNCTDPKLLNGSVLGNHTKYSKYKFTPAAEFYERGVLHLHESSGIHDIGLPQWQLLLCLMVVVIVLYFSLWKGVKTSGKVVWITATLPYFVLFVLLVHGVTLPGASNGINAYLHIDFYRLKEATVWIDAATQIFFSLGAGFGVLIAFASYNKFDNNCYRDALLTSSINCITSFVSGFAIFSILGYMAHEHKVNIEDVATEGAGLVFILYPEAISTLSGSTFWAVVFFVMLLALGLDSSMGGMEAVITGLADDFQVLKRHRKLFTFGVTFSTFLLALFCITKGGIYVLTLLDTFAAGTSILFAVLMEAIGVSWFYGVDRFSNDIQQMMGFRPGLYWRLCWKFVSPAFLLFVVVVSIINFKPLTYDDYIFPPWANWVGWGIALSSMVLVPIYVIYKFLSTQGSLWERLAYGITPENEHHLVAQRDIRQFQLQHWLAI
5-hydroxytryptamine receptor 2A, sequence (P28223 whole entry): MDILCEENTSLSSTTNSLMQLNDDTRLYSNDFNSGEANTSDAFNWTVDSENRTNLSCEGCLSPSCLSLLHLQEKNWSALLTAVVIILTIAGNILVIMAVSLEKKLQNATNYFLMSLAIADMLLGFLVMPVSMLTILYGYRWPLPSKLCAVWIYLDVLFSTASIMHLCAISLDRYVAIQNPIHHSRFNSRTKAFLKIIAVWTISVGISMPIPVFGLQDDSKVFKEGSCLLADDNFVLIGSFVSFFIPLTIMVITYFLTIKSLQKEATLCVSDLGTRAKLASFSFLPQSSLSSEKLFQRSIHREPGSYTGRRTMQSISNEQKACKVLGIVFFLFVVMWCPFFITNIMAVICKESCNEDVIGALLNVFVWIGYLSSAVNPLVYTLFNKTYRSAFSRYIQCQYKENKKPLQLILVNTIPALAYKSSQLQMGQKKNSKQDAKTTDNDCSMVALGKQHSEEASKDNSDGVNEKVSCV
Cytochrome P450 3A4, sequence (P08684 whole entry): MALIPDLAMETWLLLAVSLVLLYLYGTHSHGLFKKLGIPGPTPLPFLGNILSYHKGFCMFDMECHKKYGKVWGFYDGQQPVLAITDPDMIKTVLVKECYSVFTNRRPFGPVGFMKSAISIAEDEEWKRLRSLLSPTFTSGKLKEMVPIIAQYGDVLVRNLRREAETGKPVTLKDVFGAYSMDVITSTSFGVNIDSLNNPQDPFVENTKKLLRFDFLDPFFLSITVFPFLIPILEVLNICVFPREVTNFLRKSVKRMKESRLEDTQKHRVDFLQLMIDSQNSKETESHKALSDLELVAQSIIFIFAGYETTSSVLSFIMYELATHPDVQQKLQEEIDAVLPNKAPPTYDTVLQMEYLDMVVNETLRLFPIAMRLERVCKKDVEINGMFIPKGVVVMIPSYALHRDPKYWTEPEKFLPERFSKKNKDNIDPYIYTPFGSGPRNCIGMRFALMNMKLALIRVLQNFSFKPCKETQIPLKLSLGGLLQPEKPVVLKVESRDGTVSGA

Regarding `COc1cc(OC(C)C)cc(S(=O)(=O)c2ccc3c(c2)O[C@H]2CNCC[C@@H]32)c1.Cl` (single isomer, unassigned; enantiomer 1), the Ki in [1] is 0.004 µM; in series [2], 0.027 µM; in [17], 3.7 µM; in series [18], 6.2 µM; in series [19], 19 µM. Also, the IC50 was 0.067 µM in series [3]; above 30 µM against Cytochrome P450 1A2; above 30 µM against Cytochrome P450 2C9; above 22.9 µM at Cytochrome P450 2C19; above 30 µM against Cytochrome P450 2D6; above 5.9 µM against Cytochrome P450 3A4. The IC50 in [20] worked out at 3.3 µM; in series [21] it was 2.2 µM; in series [22], 7.9 µM; in series [23], 4.8 µM; in [24] it was 6.3 µM; in [25] it was 4.4 µM. Moreover, the IC50 in series [26] is 3.9 µM. Moreover, the t1/2 in the series with Rattus norvegicus [4] stood at 150 min. Moreover, the Vd with Rattus norvegicus [5] turned out to be 4.3 L/kg. For the same compound, in series [6], the bioavailability was determined as 39%. In addition, the Kp in series [7] came out at 2.76. Moreover, the solubility in [8] and in [9] was above 130 µg/mL in each case. Also, the Papp A→B in [10] was 2.88 ×10⁻⁶ cm/s. Also, the fraction unbound in series [11] is 0.027; in series [12], 0.046. Besides, the half-life in [13], in series [14], in series [15] and in series [16] was above 40 min each time. For the same compound, the Activity in the series with Rattus norvegicus [27] came to 22%; in the series on Rattus norvegicus [28], 21%; with Rattus norvegicus [29] it was 35%.

Consider `COc1cc(OC(C)C)cc(S(=O)(=O)c2ccc3c(c2)O[C@H]2CNCC[C@@H]32)c1.Cl` (single isomer, unassigned; enantiomer 2), for which the figures for the Ki in series [1] and in [2] were 0.012 µM and 0.055 µM, respectively. The IC50 in [3] amounted to 0.045 µM. Besides, the t1/2 in the series on Rattus norvegicus [4] came to 24 min. The same compound registered a Vd in the series with Rattus norvegicus [5] of 1 L/kg. Also, the bioavailability in [30] was determined as 11%. The BPR in the series on Rattus norvegicus [31] is reported as 2.29.

For orientation: Ki means the dissociation constant of the complex between target and ligand, obtained from inhibition or displacement. Broadly, the IC50 is the concentration needed to halve the response being measured. One may read the Vd as the apparent volume that relates the amount in the body to the concentration in plasma or blood. A word on the bioavailability: it is the share of a dose that reaches the circulation, judged against a reference dose that is usually intravenous. For orientation: solubility means the dissolved amount per volume that the medium holds. As a reminder, the Papp A→B is the apparent permeability from the apical to the basolateral side of a cell layer. Usually half-life stands for the time in which the quantity being followed falls by half.
